The values that follow come from ChEMBL document CHEMBL3864144, “Cochlearoids F-K: Phenolic meroterpenoids from the fungus Ganoderma cochlear and their renoprotective activity” (Bioorg Med Chem Lett, 2016).

Data set [1] can be described thus: Cytotoxicity against human HKC8 cells assessed as decrease in cell viability at 20 uM after 24 hrs by MTT assay. The data set is classed as toxicity, cell-based. Conditions: hkc8, 24 h.
Data set [2] can be described thus: Cytotoxicity against human HKC8 cells assessed as decrease in cell viability at 5 uM after 24 hrs by MTT assay. Conditions: hkc8, 24 h. The data set is classed as toxicity, cell-based.
For data set [3], the system named is HKC8. In words: Renoprotective activity in human HKC8 cells assessed as inhibition of TGF-beta1-induced fibronectin production preincubated for 1 hr followed by TGF-beta1 induction measured after 24 hrs by solid-phase sandwich ELISA. The data set is classed as functional, cell-based.
Data set [4] is described as follows: Cytotoxicity against human HKC8 cells assessed as decrease in cell viability at 2.5 uM after 24 hrs by MTT assay. The data set is classed as toxicity, cell-based. The settings on record: hkc8, 24 h.
A short description of data set [5]: Cytotoxicity against human HKC8 cells assessed as decrease in cell viability at 10 uM after 24 hrs by MTT assay. The settings on record: hkc8, 24 h. Format: toxicity, cell-based.

SMILES strings stand for the structures. The source made the active and inactive calls. The rule behind the calls is not given here.

For `CC(C)=CCC/C(C)=C/CC/C(=C/Cc1cc2oc(=O)c(CC/C=C(\C)CCC=C(C)C)c(C(=O)c3cc(O)ccc3O)c2cc1O)CO`, the Activity result in data set [1] was “Toxic”; in data set [2], “Non-Toxic”. In addition, the inhibition result in data set [3] is “Active”.

For the compound `CC(C)=CCC/C(=C/Cc1cc2oc(=O)c3c(O)ccc(O)c3c2cc1O)C(=O)O`, the Activity entry in data set [1] was “Toxic”; in data set [2] it was “Non-Toxic”. Besides, the inhibition entry in data set [3] was “Active”.

Take `CC(C)=CCC/C(C)=C/CC/C(=C/Cc1cc(O)cc2c1oc(=O)c1c(O)ccc(O)c12)C(=O)O`: the Activity result is “Toxic” in data set [1] and “Non-Toxic” in data set [4]. In data set [3], the inhibition result was “Active”.

With `CC(C)=CCC/C(C)=C/CC/C(=C/Cc1cc2oc(=O)c3c(O)ccc(O)c3c2cc1O)CO`, the values for the Activity result in data set [1] and in data set [4] were “Toxic” and “Non-Toxic”, respectively.

As for `CC(C)=CCC/C(C)=C/CC/C(=C/Cc1cc(O)cc2c1oc(=O)c1c(O)ccc(O)c12)CO`, the Activity result was “Toxic” in data set [1] and “Non-Toxic” in data set [5]. The inhibition result in data set [3] is “Active”.

For `CC(C)=CCC/C(C)=C/CC/C(=C/Cc1cc(O)cc2c(C(=O)c3cc(O)ccc3O)c(CC/C=C(\C)CCC=C(C)C)c(=O)oc12)CO`, the values for the Activity entry in data set [1] and in data set [2] were “Toxic” and “Non-Toxic”, respectively. For the same compound, in data set [3], the inhibition entry was “Active”.
